The source of these data is patent publication US10322110B2, “Imidazole-based antimicrobial agents” (priority 2014, dated 2019).

Converted amounts (≈) assume the structure as drawn. Like-named read-outs stand apart in the source and are kept apart here.

Holding throughout (format): cell-based
In data set [1] the test system is Streptococcus pneumoniae (Chester, ATCC49619). The experiment in a line: broth microdilution MIC assay, Streptococcus pneumoniae. As to conditions: MIC100 class score, 24 h.
Data set [2] deals with Staphylococcus aureus MSSA (Newman). In words: broth microdilution MIC assay, Staphylococcus aureus MSSA (Newman). As to conditions: for Antibacterial activity Staphylococcus aureus (MSSA): MIC100 class score, broth microdilution; for MIC: Staphylococcus aureus.
Data set [3] concerns Staphylococcus aureus MRSA (COL). The experiment in a line: broth microdilution MIC assay, Staphylococcus aureus MRSA (COL). The conditions noted are these: for Antibacterial activity Staphylococcus aureus (MRSA): MIC100 class score, broth microdilution; for MIC: Staphylococcus aureus, MRSA.
For data set [4], the system named is Human hepatocytes (HepaRG cells). The experiment in a line: human cytotoxicity assay in vitro (CellTiter-Glo), hepatocytes. As to conditions: cytotoxicity class.
The mark [5] stands for this setting: read-out: Antibacterial activity MSSA (Staphylococcus aureus MSSA).
The mark [6] stands for this setting: read-out: Antibacterial activity MRSA (Staphylococcus aureus MRSA).
Setting [7] is: 24 h, read-out: Antibacterial activity Staphylococcus aureus (MRSA).

`Cc1nc(-c2ccc(-c3ccccc3OC(F)(F)F)o2)[nH]c1-c1ccc(Br)cc1` [Compound 29]: the “Antibacterial activity Streptococcus pneumoniae” value in data set [1] is on record as 3 (MIC100 of 2-5 μg/ml). In data set [2] (24 h), the “Antibacterial activity Staphylococcus aureus (MSSA)” value was 3 (MIC100 of 3-10 μg/ml). Besides, the MIC in data set [2] (setting [5]) was in the range of 3 to 10 µg/mL (≈ 6.48 to 21.6 µM); in data set [3] (setting [6]) it was 11 to 201 µg/mL (≈ 23.7 to 434 µM). For the same compound, in data set [3] (24 h), the “Antibacterial activity Staphylococcus aureus (MRSA)” value is reported as 2 (MIC100 of 11-201 μg/ml).
As to `COc1ccc(-c2ccc(-c3nc(C)c(-c4ccccc4)[nH]3)o2)c(C(F)(F)F)c1` [Compound 31], the “cytotoxicity cell line H (hepatocytes)” value in data set [4] worked out at 3. In addition, the MIC was in the range of 3 to 10 µg/mL (≈ 7.53 to 25.1 µM) in data set [2] (24 h, read-out: Antibacterial activity Staphylococcus aureus (MSSA)); 3 to 10 µg/mL (≈ 7.53 to 25.1 µM) in data set [2] (setting [5]); 3 to 10 µg/mL (≈ 7.53 to 25.1 µM) in data set [3] (setting [7]); 3 to 10 µg/mL (≈ 7.53 to 25.1 µM) in data set [3] (setting [6]).
Consider `Cc1[nH]c(-c2ccc(-c3cc(C(F)(F)F)ccc3Cl)o2)nc1-c1ccccc1` [Compound 40], for which the “cytotoxicity cell line H (hepatocytes)” value in data set [4] is listed as 2.
Turning to `Cc1ccc(-c2ccc(-c3nc(-c4ccccc4)c(C)[nH]3)o2)cc1` [Compound 52], the “cytotoxicity cell line H (hepatocytes)” value in data set [4] is listed as 3. The MIC in data set [3] (setting [7]) is 20 to 50 µg/mL (≈ 63.6 to 159 µM).
Turning to `Cc1[nH]c(-c2cc(C)n(-c3ccc(C(C)C)cc3)c2C)nc1-c1ccccc1` [Compound 58], in data set [4], the “cytotoxicity cell line H (hepatocytes)” value was determined as 3. Also, in data set [3] (setting [6]), the MIC is 20 to 50 µg/mL (≈ 54.1 to 135 µM).
With `Cc1ccccc1-c1ccc(-c2nc(-c3ccccc3)c(C)[nH]2)o1` [Compound 61], the “cytotoxicity cell line H (hepatocytes)” value in data set [4] amounted to 3.
The same measure, in the same setting: the same measure for `Cc1cccc(C)c1-c1ccc(-c2nc(-c3ccccc3)c(C)[nH]2)o1` [Compound 62]: 3.
For `FC(F)(F)c1ccccc1-c1ccc(-c2nc(Cl)c(-c3ccccc3)[nH]2)o1` [Compound 65], the “cytotoxicity cell line H (hepatocytes)” value in data set [4] is listed as 2. Moreover, in data set [2] (24 h), the “Antibacterial activity Staphylococcus aureus (MSSA)” value is recorded as 2 (MIC100 of 11-201 μg/ml). Also, the MIC in data set [2] (setting [5]) was 11 to 201 µg/mL (≈ 28.3 to 517 µM).
`Cc1nc(-c2ccc(-c3ccccc3N(C)C)o2)[nH]c1-c1ccccc1` [Compound 71]: the “cytotoxicity cell line H (hepatocytes)” value in data set [4] is reported as 3.
Take `Cc1nc(-c2ccc(-c3ccc(F)cc3F)o2)[nH]c1-c1ccc(O)cc1` [Compound 80]: the “Antibacterial activity Streptococcus pneumoniae” value in data set [1] is recorded as 3 (MIC100 of 2-5 μg/ml). Further, the “Antibacterial activity Staphylococcus aureus (MSSA)” value in data set [2] (24 h) is 3 (MIC100 of 3-10 μg/ml). The “Antibacterial activity Staphylococcus aureus (MRSA)” value in data set [3] (24 h) is on record as 2 (MIC100 of 11-201 μg/ml).
`CCCc1[nH]c(-c2ccc(-c3ccccc3)o2)nc1C` [Compound 94]: in data set [1], the “Antibacterial activity Streptococcus pneumoniae” value is reported as 3 (MIC100 of 2-5 μg/ml). Further, the “Antibacterial activity Staphylococcus aureus (MRSA)” value in data set [3] (24 h) was 3 (MIC100 of 3-10 μg/ml).
On the same counts, the results for `CCCc1[nH]c(-c2ccc(-c3ccccc3[N+](=O)[O-])o2)nc1C` [Compound 97] are 2 (MIC100 of 6-10 μg/ml) and 2 (MIC100 of 11-201 μg/ml).
For `CCCc1nc(-c2ccc(-c3ccccc3C)o2)[nH]c1C` [Compound 100], in that order: 3 (MIC100 of 2-5 μg/ml) and 2 (MIC100 of 11-201 μg/ml).
On the same counts, the results for `CCCc1nc(-c2ccc(-c3c(C)cccc3C)o2)[nH]c1C` [Compound 103] are 3 (MIC100 of 2-5 μg/ml) and 3 (MIC100 of 3-10 μg/ml).
For `CCCc1nc(-c2ccc(-c3ccc(C(F)(F)F)cc3)o2)[nH]c1C` [Compound 104], the “Antibacterial activity Streptococcus pneumoniae” value in data set [1] is 3 (MIC100 of 2-5 μg/ml). Besides, in data set [3] (24 h), the “Antibacterial activity Staphylococcus aureus (MRSA)” value is reported as 3 (MIC100 of 3-10 μg/ml).
For `CCCc1[nH]c(-c2ccc(-c3cccc4[nH]ccc34)o2)nc1C` [Compound 108], in data set [1], the “Antibacterial activity Streptococcus pneumoniae” value is given as 2 (MIC100 of 6-10 μg/ml). Also, the “Antibacterial activity Staphylococcus aureus (MRSA)” value in data set [3] (24 h) is listed as 2 (MIC100 of 11-201 μg/ml).
With `CCCc1[nH]c(-c2ccc(-c3ccc(O)cc3C(F)(F)F)o2)nc1C` [Compound 110], in data set [1], the “Antibacterial activity Streptococcus pneumoniae” value is given as 3 (MIC100 of 2-5 μg/ml). For the same compound, in data set [3] (24 h), the “Antibacterial activity Staphylococcus aureus (MRSA)” value is 3 (MIC100 of 3-10 μg/ml).
